Patent publication US11896589B2, “Diazinyl amino acridines and medical uses thereof” (MyCural Therapeutics AB, priority 2018, dated 2024)

Assays:
[1] = molecular target: T1, FRA1:JUN interaction in MDA-MB231 cells (Homo sapiens, UniProt P05412+P15407); test: Assay 3A isPLA assay, FRA1:JUN; format: cell-based; conditions: 10 μM
T1 construct: endogenous in cells; host or cells: MDA-MB231
Experimental: (§1) FIG. 4: A) Endogenous MYC:MAX (upper panel) and FRA1:JUN (lower panel) interactions as visualized as fluorescent red dots by isPLA. Nuclei were counterstained with DAPI (blue). Cells were treated with 10 μM of indicated compounds for 16 hours and subjected to isPLA using pairs of MYC and MAX and of FRA1 and JUN antibodies, respectively. As negative control, primary antibody pairs but only one oligo-conjugated secondary antibody was used. B) Quantification of MYC:MAX and C) FRA1:JUN isPLA, representing an average number of nuclear dots per cell from three microscopic fields normalized to corresponding values for DMSO-treated cells. […] 1st-4th lanes from top; coimmunoprecipitated MAX, immunoprecipitated MYC, total levels of MAX and ACTIN, respectively, as determined by western blot analysis. E) MYC:MAX GLuc assay in cells. […] 24 hours later cells were treated with […] of Example 1, Example 2 and control compound for 16 hours and thereafter analyzed in a dual luciferase assay. The ratio of Gaussia/Firefly luciferase luminescence were calculated and normalized to DMSO-treated cells.
(§2) Identification of endogenous protein-protein interactions in fixed cells and has been described (Soderberg, O. et al., Nat Methods, 3, 995-1000 (2006)). […] Endogenous MYC:MAX or FRA-1:JUN protein interactions were visualized by fluorescence microscopy as fluorescent dots mainly localized in the cell nucleus. […]

[2] = molecular target: T2, endogenous MYC:MAX interaction in MDA-MB231 cells (Homo sapiens, UniProt P01106); test: Assay 3A isPLA assay, MYC:MAX; format: cell-based
T2 construct: endogenous in cells; host or cells: MDA-MB231
T2 sequence (P01106 whole entry): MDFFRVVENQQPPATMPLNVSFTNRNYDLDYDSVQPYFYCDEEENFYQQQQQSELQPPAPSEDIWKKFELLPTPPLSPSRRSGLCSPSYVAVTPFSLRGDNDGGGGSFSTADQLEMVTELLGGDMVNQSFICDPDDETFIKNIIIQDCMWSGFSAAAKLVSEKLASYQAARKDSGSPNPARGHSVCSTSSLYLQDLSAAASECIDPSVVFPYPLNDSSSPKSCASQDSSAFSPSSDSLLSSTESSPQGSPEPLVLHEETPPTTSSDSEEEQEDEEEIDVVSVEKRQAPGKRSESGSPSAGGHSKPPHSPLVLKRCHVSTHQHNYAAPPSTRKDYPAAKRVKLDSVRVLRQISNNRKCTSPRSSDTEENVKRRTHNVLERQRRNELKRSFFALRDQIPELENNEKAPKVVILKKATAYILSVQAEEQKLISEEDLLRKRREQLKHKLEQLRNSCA
Source text: as §1, with “Cells were treated with 10 μM of indicated compounds for 16 hours and subjected to isPLA using pairs of MYC and MAX and of FRA1 and JUN antibodies, respectively.” left out
Assay 3A: The isPLA Assay
as §2

[3] = molecular target: T3, MYC:MAX heterodimer (MYCbHLHZip over immobilized MAXbHLHZip) (Homo sapiens, UniProt P01106); test: Assay 1B MYC:MAX SPR heterodimer formation assay; format: binding; conditions: 100 nM MYCbHLHZip pre-mixed with compound, 25° C.
T3 construct: MYC:MAX heterodimer formation assay based on recombinant proteins
T3 sequence (P01106 368-449 limits assumed, one chain of several): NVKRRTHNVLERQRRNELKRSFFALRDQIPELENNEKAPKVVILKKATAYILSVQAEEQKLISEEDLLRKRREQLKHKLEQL
Experimental: FIG. 1: A) Microscale thermophoresis (MST) of fluorescently labeled MAX in a MYC:MAX heterodimer formation assay based on recombinant proteins. MST of labeled MAXbHLHZip after titration of Example 1 pre-incubated with 1 μM MYCbHLHZip, or with 1 μM MAXbHLHZip. Fluorescence intensity of labeled MAXbHLHZip relative DMSO was plotted against Example 1 concentration. B) Surface plasmon resonance (SPR) of MYC:MAX heterodimer formation assay. MAXbHLHZip was immobilized by an amino coupling procedure to a CM5 sensor chip. MYCbHLHZip pre-incubated with or without compound (as indicated) was injected over MAX for 180 seconds, allowed to dissociate for 240 seconds and regenerated. Reference surface (without MAXbHLHZip) subtracted sensorgrams are shown from one representative experiment. C) MYC binding response units (RU) plotted against Example 1 concentration from which an IC50 of Example 1 inhibition of MYC:MAX heterodimer formation is determined, summary of four experiments.
Assay 1B. Surface Plasmon Resonance (SPR)
The SPR method is a highly sensitive assay to determine the affinity between protein and ligand and to measure the kinetics of the interaction (see Handbook of Surface Plasmon Resonance 2nd edition, Richard B M Schasfoort (Editor), RSC 2017, ca. 500 p., hardcover, ISBN 978-1-78262-730-2). […]

T1 sequence (P15407 whole entry): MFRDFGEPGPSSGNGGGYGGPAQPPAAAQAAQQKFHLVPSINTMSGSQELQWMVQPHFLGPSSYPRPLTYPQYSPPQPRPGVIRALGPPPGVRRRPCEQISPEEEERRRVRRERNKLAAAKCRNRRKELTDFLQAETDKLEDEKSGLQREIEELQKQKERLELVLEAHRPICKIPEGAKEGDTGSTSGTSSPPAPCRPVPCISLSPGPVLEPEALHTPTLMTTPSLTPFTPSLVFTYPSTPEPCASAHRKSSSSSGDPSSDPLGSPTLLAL
T1 sequence (P05412 whole entry): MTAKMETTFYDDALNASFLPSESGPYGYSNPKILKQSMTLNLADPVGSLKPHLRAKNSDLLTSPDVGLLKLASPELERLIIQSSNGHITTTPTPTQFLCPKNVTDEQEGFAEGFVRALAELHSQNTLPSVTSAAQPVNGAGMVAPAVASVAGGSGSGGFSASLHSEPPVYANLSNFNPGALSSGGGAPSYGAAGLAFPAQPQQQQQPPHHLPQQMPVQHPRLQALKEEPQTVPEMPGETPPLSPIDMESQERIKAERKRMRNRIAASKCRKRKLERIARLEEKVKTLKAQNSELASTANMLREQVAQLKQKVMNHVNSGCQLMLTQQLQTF

effect on FRA1:JUN interaction (isPLA) [1]: not affecting
isPLA signals, % of DMSO control ([2]; 10 μM, 24 hours): 7%
inhibition at 10 µM ([2]; MDA-MB-231): 95%
IC50 [3]: 3.8 µM
SMILES: CCOc1ccc2nc3cc(/N=N/c4ccc(N)nc4N)ccc3c(N)c2c1 [Example 1, 3-((9-amino-7-ethoxyacridin-3-yl)diazenyl)pyridine-2,6-diamine sulphate hydrate]
